Reference: patent US20140051679A1, “KINASE INHIBITORS AND METHOD OF TREATING CANCER WITH SAME” (UNIVERISTY HEALTH NETWORKS, priority 2011, published 2014)

Assays:
[1] = target: T1, human PLK4 (Homo sapiens, UniProt O00444); assay: PLK4 inhibition assay (indirect ELISA); assay type: biochemical; settings: GST-PLK4 4 nM, 15 μM ATP; read-out: IC50 Ranges PLK4
T1 construct: amino terminal GST fusion of residues 1-391 of human PLK4; made in house; host or cells: E. coli
T1 sequence (O00444 1-391): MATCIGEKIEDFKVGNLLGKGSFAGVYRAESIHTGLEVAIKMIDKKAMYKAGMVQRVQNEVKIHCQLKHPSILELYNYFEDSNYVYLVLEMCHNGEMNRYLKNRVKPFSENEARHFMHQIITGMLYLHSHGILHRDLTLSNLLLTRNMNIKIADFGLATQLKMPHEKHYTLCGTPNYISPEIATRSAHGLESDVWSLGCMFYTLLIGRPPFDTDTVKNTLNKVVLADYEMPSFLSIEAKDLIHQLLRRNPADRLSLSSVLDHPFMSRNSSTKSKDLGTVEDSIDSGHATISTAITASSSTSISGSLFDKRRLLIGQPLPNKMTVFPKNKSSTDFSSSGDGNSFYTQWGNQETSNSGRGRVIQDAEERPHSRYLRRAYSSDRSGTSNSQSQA
Protocol: Active PLK4 was purified from an E. coli expression system as an amino terminal GST fusion of residues 1-391 of human PLK4. The protein was purified from clarified cell extracts after induction at 15° C. overnight using glutathione sepharose, gel permeation chromatography, and ion exchange (Resource Q). The resulting protein was dephosphorylated with lambda phosphatase (NEB cat#P0753), and resolved from the phosphatase using gluthione sepharose. The dephosphorylated GST-PLK4 was stored in aliquots at −80° C. until use.
PLK4 activity was measured using an indirect ELISA detection system. GST-PLK4 (4 nM) was incubated in the presence of 15 μM ATP (Sigma cat#A7699), 50 mM HEPES-Na^2+ pH 7.5, 10 mM MgCl2, 0.01% Brij 35 (Sigma cat#03-3170), in a 96 well microtitre plate pre-coated with MBP (Millipore cat#30-011). The reaction was allowed to proceed for 30 minutes, followed by 5 washes of the plate with Wash Buffer (phosphate buffered saline supplemented with 0.2% Tween 20), and incubation for 30 minutes with a 1:3000 dilution of primary antibody (Cell Signaling cat#9381). The plate was washed 5 times with Wash Buffer, incubated for 30 minutes in the presence of secondary antibody coupled to horse radish peroxidase (BioRad cat#1721019, 1:3000 concentration), washed an additional 5 times with Wash Buffer, and incubated in the presence of TMB substrate (Sigma cat#T0440). The colourimetric reaction was allowed to continue for 5 minutes, followed by addition of stop solution (0.5 N sulphuric acid), and quantified by detection at 450 nm with either a monochromatic or filter based plate reader (Molecular Devices M5 or Beckman DTX880, respectively).
Compound inhibition was determined at either a fixed concentration (10 μM) or at a variable inhibitor concentration (typically 0.5 μM to 0.001 μM in a 10 point dose response titration). Compounds were pre-incubated in the presence of enzyme for 15 minutes prior to addition of ATP and the activity remaining quantified using the above described activity assay. The % Inhibition of a compound was determined using the following formula; % Inhibition=100×(1-(experimental value−background value)/(high activity control−background value)). The IC50 value was determined using a non-linear 4 point logistic curve fit (XLfit4, IDBS) with the formula; (A+(B/(1+((x/C)̂D)))), where A=background value, B=range, C=inflection point, D=curve fit parameter.

[2] = target: T2, Aurora B (Homo sapiens, UniProt Q96GD4); assay: Aurora B inhibition assay (Z-Lyte); assay type: biochemical; settings: 28 nM Aurora B, 128 μM ATP; read-out: IC50 Ranges Aurora B
T2 construct: purchased Invitrogen PV3970
Protocol: Aurora B inhibition was determined using the Z-Lyte assay kit from Invitrogen. The assay was performed using the recommended manufacturer's instructions with 128 μM ATP and 28 nM Aurora B (Invitrogen cat #PV3970). The % inhibition values were determined according to the manufacturer's directions and IC50 values were obtained using a non-linear 4 point logistic curve fit (XLfit4, IDBS)

[3] = test system: HT29 colon cancer cells; assay: Cell growth inhibition, Sulforhodamine B assay, HT29; assay type: cell-based; settings: Homo sapiens, HT-29, 120 h, 5 days culture, SRB assay, read-out: Cell Line GI50 Range HT29
[4] = test system: HCT116 colon cancer cells; assay: Cell growth inhibition, Sulforhodamine B assay, HCT116; assay type: cell-based; settings: Homo sapiens, HCT-116, 120 h, 5 days culture, SRB assay, read-out: Cell Line GI50 Range HCT116
[5] = test system: MDA-MB-468 breast cancer cells; assay: Cell growth inhibition, Sulforhodamine B assay, MDA-MB-468; assay type: cell-based; settings: Homo sapiens, 120 h, 5 days culture, SRB assay, read-out: Cell Line GI50 Range MDA-MB-468
[6] = target: T3, human TTK (Homo sapiens, UniProt P33981); assay: TTK inhibition assay (indirect ELISA); assay type: biochemical; settings: GST-TTK 0.68 nM, 16 μM ATP; read-out: IC50 Ranges TTK
T3 construct: amino terminal GST fusion of full length human TTK; purchased Invitrogen
T3 sequence (P33981 1-857): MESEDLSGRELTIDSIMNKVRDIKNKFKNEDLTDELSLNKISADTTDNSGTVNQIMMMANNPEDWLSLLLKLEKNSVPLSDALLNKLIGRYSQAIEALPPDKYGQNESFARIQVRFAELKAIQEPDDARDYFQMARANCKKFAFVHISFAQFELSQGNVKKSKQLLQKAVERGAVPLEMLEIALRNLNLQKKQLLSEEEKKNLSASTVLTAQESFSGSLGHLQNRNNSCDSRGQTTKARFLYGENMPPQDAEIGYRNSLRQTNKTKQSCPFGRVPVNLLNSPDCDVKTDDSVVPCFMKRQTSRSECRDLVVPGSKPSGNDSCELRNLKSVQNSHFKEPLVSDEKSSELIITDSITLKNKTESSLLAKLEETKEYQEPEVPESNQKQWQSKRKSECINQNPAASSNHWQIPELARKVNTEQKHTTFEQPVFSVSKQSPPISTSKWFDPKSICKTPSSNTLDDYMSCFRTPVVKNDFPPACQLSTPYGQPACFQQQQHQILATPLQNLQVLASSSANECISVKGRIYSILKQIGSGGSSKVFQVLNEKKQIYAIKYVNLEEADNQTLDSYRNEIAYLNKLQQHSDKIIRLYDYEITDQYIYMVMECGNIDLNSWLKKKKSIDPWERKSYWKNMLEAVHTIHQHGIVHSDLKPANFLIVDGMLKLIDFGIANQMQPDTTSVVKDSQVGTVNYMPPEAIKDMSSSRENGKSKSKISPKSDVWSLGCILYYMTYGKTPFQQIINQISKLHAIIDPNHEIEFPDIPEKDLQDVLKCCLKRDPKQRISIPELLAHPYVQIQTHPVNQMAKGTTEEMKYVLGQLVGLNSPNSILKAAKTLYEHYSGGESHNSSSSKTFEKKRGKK

T2 sequence (Q96GD4 whole entry): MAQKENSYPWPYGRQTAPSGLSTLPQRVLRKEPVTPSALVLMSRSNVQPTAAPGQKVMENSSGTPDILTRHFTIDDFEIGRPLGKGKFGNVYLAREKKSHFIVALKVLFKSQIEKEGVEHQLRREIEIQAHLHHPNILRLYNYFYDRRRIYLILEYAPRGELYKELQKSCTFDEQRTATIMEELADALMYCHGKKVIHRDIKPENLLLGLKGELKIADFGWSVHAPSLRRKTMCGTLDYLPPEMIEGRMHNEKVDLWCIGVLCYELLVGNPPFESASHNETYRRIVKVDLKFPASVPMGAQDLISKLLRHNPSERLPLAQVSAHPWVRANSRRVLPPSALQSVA

O=C(N[C@@H](c1ccccc1)C1CC1)c1ccc2[nH]nc(-c3ccc(N4CCOCC4)cc3)c2c1 [Example A51, (R)—N-(cyclopropyl(phenyl)methyl)-3-(4-morpholinophenyl)-1H-indazole-5-carboxamide]
≤ 5 µM: IC50 [1] | IC50 [2] | GI50 [3] | GI50 [4] | GI50 [5] | IC50 [6]

C[C@@H]1CN(c2ccc(-c3n[nH]c4ccc(NC(=O)C(c5ccsc5)N5CCCC5)cc34)cc2)C[C@H](C)O1 (stereo partly drawn) [Example A50, N-(3-(4-((2S,6R)-2,6-dimethylmorpholino)phenyl)-1H-indazol-5-yl)-2-(pyrrolidin-1-yl)-2-(thiophen-3-yl)acetamide]
≤ 5 µM: IC50 [1] | IC50 [2] | GI50 [3] | GI50 [4] | GI50 [5] | IC50 [6]

COC(C(=O)Nc1ccc2[nH]nc(-c3ccc(OC4CCN(C)CC4)cc3)c2c1)c1ccsc1 (stereo not drawn) [Example A37, 2-methoxy-N-(3-(4-((1-methylpiperidin-4-yl)oxy)phenyl)-1H-indazol-5-yl)-2-(thiophen-3-yl)acetamide]
≤ 5 µM: IC50 [1] | IC50 [2] | GI50 [3] | GI50 [4] | GI50 [5] | IC50 [6]

CN1CCC(Oc2ccc(-c3n[nH]c4ccc(NC(=O)C(c5ccsc5)N5CCCC5)cc34)cc2N)CC1 (stereo not drawn) [Example A80, N-(3-(3-amino-4-((1-methylpiperidin-4-yl)oxy)phenyl)-1H-indazol-5-yl)-2-(pyrrolidin-1-yl)-2-(thiophen-3-yl)acetamide]
≤ 5 µM: IC50 [1] | IC50 [2] | GI50 [3] | GI50 [4] | GI50 [5] | IC50 [6]

CN1[C@@H]2CC[C@H]1C[C@@H](Oc1ccc(-c3n[nH]c4ccc(C(=O)N[C@H](c5ccccn5)C5CC5)cc34)cc1)C2 [Example A213, N—((S)-cyclopropyl(pyridin-2-yl)methyl)-3-(4-(((1R,3r,5S)-8-methyl-8-azabicyclo[3.2.1]octan-3-yl)oxy)phenyl)-1H-indazole-5-carboxamide]
≤ 5 µM: IC50 [1] | IC50 [2] | IC50 [6]

CN1CCC(Oc2ccc(-c3n[nH]c4ccc(C(=O)N[C@H](c5ccccn5)C5CC5)cc34)cc2)CC1 [Example A214, (S)—N-(cyclopropyl(pyridin-2-yl)methyl)-3-(4-((1-methylpiperidin-4-yl)oxy)phenyl)-1H-indazole-5-carboxamide]
≤ 5 µM: IC50 [1] | IC50 [2] | IC50 [6]

O=CN1CCC(Oc2ccc(-c3n[nH]c4ccc(C(=O)N[C@@H](c5ncccc5Cl)C5CC5)cc34)cc2)CC1 [Example A211, (R)—N-((3-chloropyridin-2-yl)(cyclopropyl)methyl)-3-(4-((1-formylpiperidin-4-yl)oxy)phenyl)-1H-indazole-5-carboxamide]
≤ 5 µM: IC50 [1] | IC50 [2] | IC50 [6]

O=C(NC(c1ccccn1)C1CC1)c1ccc2[nH]nc(-c3ccc(OC4CN(C5COC5)C4)cc3)c2c1 (stereo not drawn) [Example A209, N-(cyclopropyl(pyridin-2-yl)methyl)-3-(4-((1-(oxetan-3-yl)azetidin-3-yl)oxy)phenyl)-1H-indazole-5-carboxamide]
≤ 5 µM: IC50 [1] | IC50 [2] | IC50 [6]

CN1CCC(Oc2ccc(-c3n[nH]c4ccc(C(=O)NCC(c5ccccc5)C5CCCC5)cc34)cc2)CC1 (stereo not drawn) [Example A207, N-(2-cyclopentyl-2-phenylethyl)-3-(4-((1-methylpiperidin-4-yl)oxy)phenyl)-1H-indazole-5-carboxamide]
≤ 5 µM: IC50 [1] | IC50 [2] | IC50 [6]
